Earlier results in PubChem BioAssay AID1259409 (Chemical Carcinogenesis Research Information System (CCRIS), 2018).

System: rodent chemically induced tumor inhibition, incidence and multiplicity
Assay: CCRIS tumor inhibitor studies

Structure (SMILES): O=C(/C=C/c1ccccc1)c1ccccc1
- tumour outcome (control, treated, inhibition, significance) (Carcinogen: 4-NITROQUINOLINE-1-OXIDE, 56-57-5, Dose [Inhibitor]: 0, 500 PPM IN DIET FOR 10 WK BEGINNING 1 WK PRIOR TO CARCINOGEN DOSE (STUDY DURATION: 32 WK), Route [Inhibitor]: ORAL, Species: RAT, Strain/Sex: F344/MALE, Target Tissue: Type of Lesion: TONGUE: CARCINOMA, Dose [Carcinogen]: 20 PPM IN DRINKING WATER FOR 8 WK, Promoter: NONE USED): 9/15 (60%), 3/16 (19%), 68%, p<0.05
- tumour outcome (control, treated, inhibition, significance) (Carcinogen: 4-NITROQUINOLINE-1-OXIDE, 56-57-5, Dose [Inhibitor]: 0, 500 PPM IN DIET FOR 10 WK BEGINNING 1 WK PRIOR TO CARCINOGEN DOSE (STUDY DURATION: 32 WK), Route [Inhibitor]: ORAL, Species: RAT, Strain/Sex: F344/MALE, Target Tissue: Type of Lesion: TONGUE: PAPILLOMA, Dose [Carcinogen]: 20 PPM IN DRINKING WATER FOR 8 WK, Promoter: NONE USED): 4/15 (27%), 1/16 (6%), 78%, not significant
- tumour outcome (control, treated, inhibition, significance) (Carcinogen: 4-NITROQUINOLINE-1-OXIDE, 56-57-5, Dose [Inhibitor]: 0, 500 PPM IN DIET FOR 22 WK BEGINNING 1 WK POST CARCINOGEN TREATMENT (STUDY DURATION: 32 WK), Route [Inhibitor]: ORAL, Species: RAT, Strain/Sex: F344/MALE, Target Tissue: Type of Lesion: TONGUE: CARCINOMA, Dose [Carcinogen]: 20 PPM IN DRINKING WATER FOR 8 WK, Promoter: NONE USED): 9/15 (60%), 3/16 (19%), 68%, p<0.05
- tumour outcome (control, treated, inhibition, significance) (Carcinogen: 4-NITROQUINOLINE-1-OXIDE, 56-57-5, Dose [Inhibitor]: 0, 500 PPM IN DIET FOR 22 WK BEGINNING 1 WK POST CARCINOGEN TREATMENT (STUDY DURATION: 32 WK), Route [Inhibitor]: ORAL, Species: RAT, Strain/Sex: F344/MALE, Target Tissue: Type of Lesion: TONGUE: PAPILLOMA, Dose [Carcinogen]: 20 PPM IN DRINKING WATER FOR 8 WK, Promoter: NONE USED): 4/15 (27%), 0/16 (0%), 100%, p<0.05
- tumour outcome (control, treated, inhibition, significance) (Carcinogen: BENZO[A]PYRENE, 50-32-8, Dose [Inhibitor]: 0, 0.2 MG/G IN DIET FOR 21 WK BEGINNING 1 WK POST LAST CARCINOGEN DOSE (STUDY DURATION: 23 WK), Route [Inhibitor]: ORAL, Species: MOUSE, Strain/Sex: STRAIN-A/FEMALE, Target Tissue: Type of Lesion: FORESTOMACH: TUMOR, Dose [Carcinogen]: 2 MG IN 0.2 ML COTTONSEED OIL ONCE EACH ON DAYS 1, 3 AND 7 OF STUDY, Promoter: NONE USED): 93%, 100%, -8%, not significant
- tumour outcome (control, treated, inhibition, significance) (Carcinogen: BENZO[A]PYRENE, 50-32-8, Dose [Inhibitor]: 0, 1 MG/G IN DIET FOR 21 WK BEGINNING 1 WK POST LAST CARCINOGEN DOSE (STUDY DURATION: 23 WK), Route [Inhibitor]: ORAL, Species: MOUSE, Strain/Sex: STRAIN-A/FEMALE, Target Tissue: Type of Lesion: FORESTOMACH: TUMOR, Dose [Carcinogen]: 2 MG IN 0.2 ML COTTONSEED OIL ONCE EACH ON DAYS 1, 3 AND 7 OF STUDY, Promoter: NONE USED): 93%, 100%, -8%, not significant
- tumour outcome (control, treated, inhibition, significance) (Carcinogen: BENZO[A]PYRENE, 50-32-8, Dose [Inhibitor]: 0, 5 MG/G IN DIET FOR 21 WK BEGINNING 1 WK POST LAST CARCINOGEN DOSE (STUDY DURATION: 23 WK), Route [Inhibitor]: ORAL, Species: MOUSE, Strain/Sex: STRAIN-A/FEMALE, Target Tissue: Type of Lesion: FORESTOMACH: TUMOR, Dose [Carcinogen]: 2 MG IN 0.2 ML COTTONSEED OIL ONCE EACH ON DAYS 1, 3 AND 7 OF STUDY, Promoter: NONE USED): 93%, 100%, -8%, not significant
- tumour outcome (control, treated, inhibition, significance) (Carcinogen: BENZO[A]PYRENE, 50-32-8, Dose [Inhibitor]: 0, 10 MG/G IN DIET FOR 21 WK BEGINNING 1 WK POST LAST CARCINOGEN DOSE (STUDY DURATION: 23 WK), Route [Inhibitor]: ORAL, Species: MOUSE, Strain/Sex: STRAIN-A/FEMALE, Target Tissue: Type of Lesion: FORESTOMACH: TUMOR, Dose [Carcinogen]: 2 MG IN 0.2 ML COTTONSEED OIL ONCE EACH ON DAYS 1, 3 AND 7 OF STUDY, Promoter: NONE USED): 93%, 100%, -8%, not significant
- tumour outcome (control, treated, inhibition, significance) (Carcinogen: N-METHYL-N-NITROSOUREA, 684-93-5, Dose [Inhibitor]: 0, 5 MG/G IN DIET FOR 17 WK BEGINNING 1 WK POST CARCINOGEN DOSE (STUDY DURATION: 18 WK), Route [Inhibitor]: ORAL, Species: RAT, Strain/Sex: SPRAGUE-DAWLEY/FEMALE, Target Tissue: Type of Lesion: MAMMARY GLAND: TUMOR, Dose [Carcinogen]: 50 MG/KG BW ONCE, Promoter: NONE USED): 71%, 36%, 49%, p=0.058
- tumour outcome (control, treated, inhibition, significance) (Carcinogen: N-METHYL-N-NITROSOUREA, 684-93-5, Dose [Inhibitor]: 0, 5 MG/G IN DIET STARTING 4 WK POST CARCINOGEN DOSE THEN FED FOR 3 WK ALTERNATING WITH 3 WK ON CONTROL DIET FOR DURATIO, Route [Inhibitor]: ORAL, Species: RAT, Strain/Sex: SPRAGUE-DAWLEY/FEMALE, Target Tissue: Type of Lesion: MAMMARY GLAND: TUMOR, Dose [Carcinogen]: 50 MG/KG BW ONCE, Promoter: NONE USED): 75%, 38%, 49%, p=0.033

Structure (SMILES): CC(=O)OCC(=O)[C@H]1CC[C@H]2[C@@H]3CCC4=CC(=O)CC[C@]4(C)[C@H]3CC[C@]12C
- tumour outcome (control, treated, inhibition, significance) (Carcinogen: 1,2-DIMETHYLHYDRAZINE DIHYDROCHLORIDE, 306-37-6, Dose [Inhibitor]: 0, 10 MG/KG IN PEANUT OIL ON DAYS 1 AND 3 OF STUDY THEN 1/WK FOR 30 WK (STUDY DURATION: 31 WK), Route [Inhibitor]: SUBCUTANEOUS, Species: RAT, Strain/Sex: SPRAGUE-DAWLEY/MALE, Target Tissue: Type of Lesion: COLON: ADENOCARCINOMA, Dose [Carcinogen]: 9 MG/KG 1/WK FOR 7 WK THEN 19.4 MG/KG 1/WK FOR 13 WK, Promoter: NONE USED): 14/14 (100%), 13/13 (100%), 0%, not significant
- tumour outcome (control, treated, inhibition, significance) (Carcinogen: 1,2-DIMETHYLHYDRAZINE DIHYDROCHLORIDE, 306-37-6, Dose [Inhibitor]: 0, 10 MG/KG IN PEANUT OIL ON DAYS 1 AND 3 OF STUDY THEN 1/WK FOR 30 WK (STUDY DURATION: 31 WK), Route [Inhibitor]: SUBCUTANEOUS, Species: RAT, Strain/Sex: SPRAGUE-DAWLEY/MALE, Target Tissue: Type of Lesion: SMALL INTESTINE: ADENOCARCINOMA, Dose [Carcinogen]: 9 MG/KG 1/WK FOR 7 WK THEN 19.4 MG/KG 1/WK FOR 13 WK, Promoter: NONE USED): 13/14 (93%), 9/13 (69%), 26%, not significant

Structure (SMILES): S=C=Nc1cc2c3ccccc3ccc2c2ccccc12
- outcome (Carcinogen: BENZO[A]PYRENE, 50-32-8, Dose [Inhibitor]: 0, 5 UMOL IN ACETONE 4 HR PRIOR TO CARCINOGEN DOSE (STUDY DURATION: 20 WK), Route [Inhibitor]: DERMAL, Species: MOUSE, Strain/Sex: STRAIN-A/FEMALE, Target Tissue: Type of Lesion: SKIN: TUMOR, Dose [Carcinogen]: 0.1 UMOL IN ACETONE ONCE, Promoter: 12-O-TETRADECANOYLPHORBOL-13-ACETATE, 16561-29-8): 85%, 74%, 13%, not significant at 15 wk; 95%, 80%, 16%, not significant at 20 wk

Structure (SMILES): C[C@]12CC[C@@H]3c4ccc(OC(=O)c5ccccc5)cc4CC[C@H]3[C@@H]1CC[C@@H]2O
- tumour outcome (control, treated, inhibition, significance) (Carcinogen: 1,2-DIMETHYLHYDRAZINE DIHYDROCHLORIDE, 306-37-6, Dose [Inhibitor]: 0, 15 UG/KG IN PEANUT OIL ON DAYS 1 AND 3 OF STUDY THEN 1/WK FOR 30 WK (STUDY DURATION: 31 WK), Route [Inhibitor]: SUBCUTANEOUS, Species: RAT, Strain/Sex: SPRAGUE-DAWLEY/MALE, Target Tissue: Type of Lesion: COLON: ADENOCARCINOMA, Dose [Carcinogen]: 9 MG/KG 1/WK FOR 7 WK THEN 19.4 MG/KG 1/WK FOR 13 WK, Promoter: NONE USED): 14/14 (100%), 14/14 (100%), 0%, not significant
- tumour outcome (control, treated, inhibition, significance) (Carcinogen: 1,2-DIMETHYLHYDRAZINE DIHYDROCHLORIDE, 306-37-6, Dose [Inhibitor]: 0, 15 UG/KG IN PEANUT OIL ON DAYS 1 AND 3 OF STUDY THEN 1/WK FOR 30 WK (STUDY DURATION: 31 WK), Route [Inhibitor]: SUBCUTANEOUS, Species: RAT, Strain/Sex: SPRAGUE-DAWLEY/MALE, Target Tissue: Type of Lesion: SMALL INTESTINE: ADENOCARCINOMA, Dose [Carcinogen]: 9 MG/KG 1/WK FOR 7 WK THEN 19.4 MG/KG 1/WK FOR 13 WK, Promoter: NONE USED): 13/14 (93%), 11/14 (79%), 15%, not significant

Structure (SMILES): C=CCSC[C@H](N)C(=O)O
- outcome (Carcinogen: 7,12-DIMETHYLBENZ[A]ANTHRACENE (57-97-6), Dose [Inhibitor]: 0, 200 MG/KG ON ALTERNATE DAYS FOR 14 WK (STUDY DURATION: 14 WK), Route [Inhibitor]: ORAL, Species: HAMSTER, Strain/Sex: SYRIAN/MALE, Target Tissue: Type of Lesion: BUCCAL POUCH: SQUAMOUS CELL CARCINOMA, Dose [Carcinogen]: 0.5% IN LIQUID PARAFFIN TO RIGHT BUCCAL POUCH, ALTERNATE DAYS FOR 14 WK, Promoter: NONE USED): 10, 0, 100%, not calculated
- tumour outcome (control, treated, inhibition, significance) (Carcinogen: N-METHYL-N'-NITRO-N-NITROSOGUANIDINE [70-25-7], Dose [Inhibitor]: 200 MG/KG 3X/WK BEGINNING ON DAY 1 (STUDY DURATION: 21 WK), Route [Inhibitor]: GAVAGE, Species: RAT, Strain/Sex: WISTAR/MALE, Target Tissue: Type of Lesion: STOMACH: CARCINOMA, Dose [Carcinogen]: 200 MG/KG BW ONCE ON DAYS 0 AND 14, Promoter: SODIUM CHLORIDE [7647-14-5]): 6/6 (100%), 0/6 (0%), 100%, not determined
- tumour outcome (control, treated, inhibition, significance) (Carcinogen: N-METHYL-N-NITROSOUREA, 684-93-5, Dose [Inhibitor]: 0, 57 UMOL/KG DIET FOR 25 WK BEGINNING 2 WK PRIOR TO CARCINOGEN DOSE (STUDY DURATION: 25 WK), Route [Inhibitor]: ORAL, Species: RAT, Strain/Sex: SPRAGUE-DAWLEY/FEMALE, Target Tissue: Type of Lesion: MAMMARY GLAND: TUMOR, Dose [Carcinogen]: 15 MG/KG BW ONCE, Promoter: NONE USED): 81%, 48%, 41%, p<0.05
